One assay has as its system mAb 806. The assay can be described thus: Binding of yeast surface displayed EGFR 273-621 point mutants to mAb […] (flow cytometry). The note with it: 75 nM 806. Set-up: species or system mouse; key: ++ indicates wild type binding; +, intermediate binding; −, binding equal to negative control. As to the method: Out of 100 clones sequenced, roughly 20% contained multiple mutations and were omitted from subsequent analysis. […] All mutations are localized to the disulfide-bonded loop between cysteines 287 and 302, as has been previously determined (34). […] To verify the results from the fine epitope mapping library, alanine scanning through site-directed mutagenesis (SDM) was performed on the entire loop 287-302 (TABLE 7, right column). All sites with loss of binding by alanine scanning (287, 293, 298, and 302) correspond to mutants isolated from the library. […] Since an average of 6-7 amino acid substitutions are accessible by single nucleotide mutagenesis, a larger range of physicochemical diversity can be sampled compared to alanine scanning. […] The C287R substitution raises this dissociation constant to 127 nM (68% confidence interval of 103-160 nM), which gives a ΔΔG value of +2.4 kcal/mol when compared to wild-type and, in alanine scanning terms, is an intermediate loss of binding (36).
The epitope mapping library was constructed using the Stratagene GeneMorph® random mutagenesis kit to give a low mutagenesis rate. The template used for library construction was a pCT302 backbone containing EGFR fragment 273-621, with a C283A mutation to prevent disulfide mispairing, inserted for yeast display (27). The PCR products were gel purified and extracted using a Qiagen Qiaquick gel extraction kit. The library was transformed into Saccharomyces cerevisiae strain EBY100 (28) by electroporation (40) and homologous recombination (41) using a Bio-Rad (Richmond, Calif.) Gene Pulser Transfection Apparatus. […] Growth and expression of the library using yeast surface display was performed as previously described (28).
Anti-c-myc chicken IgY fraction was purchased from Molecular Probes (Eugene, Oreg.). An appropriate number of yeast cells (at least 10× library size) were washed with FACS buffer (phosphate buffered saline containing 1 mg/ml bovine serum albumin). The cells were incubated with 4 μg/ml anti-c-myc chicken IgY and the appropriate concentration of mAb for 30 min at 25° C. The cells were then washed with FACS buffer and incubated with 1:25 dilution phycoerythrin-labeled goat anti-mouse IgG (Sigma) and 1:100 dilution Alexa Fluor® 488 goat anti-chicken IgG (Molecular Probes) for 30 min at 4° C. The labeled cells were rinsed, and cell libraries were sorted using a MoFlo FACS machine at the MIT flow cytometry core facility.
Plasmids from the sorted library populations were recovered using Zymoprep™ and sequenced at the MIT Biopolymers Laboratory. Site-directed mutants were made using QuickChange® site-directed mutagenesis (Stratagene). Single clones were transformed into yeast using EZ Yeast Transformation (Zymo Research) and grown in minimal media (yeast nitrogen base, casein hydrolysate, dextrose, and phosphate buffer pH 7.4) overnight. Yeast surface protein expression was induced by transferring to minimal media with galactose and incubating overnight. For each clone, 1×10^6 cells were labeled as before with anti-c-myc chicken IgY, the appropriate mAb, and secondary fluorescent antibodies. Fluorescence data was obtained using a Coulter Epics XL flow cytometer (Beckman-Coulter) and was analyzed using DakoCytomation Summit™ software

The subject of assay [1] is mAb 806 binding to immobilized 501-Fc. Description: ELISA, peptide inhibition of mAb […] binding to 501-Fc. Also on record: species or system human. The note with it: increasing concentrations of peptide.
The test system of assay [2] is mAb 806 binding to immobilized 287-302 EGFR peptide. Description: BIAcore, soluble EGFR peptides blocking mAb […] binding. Set-up: species or system human. Conditions: mAb […] 500 nM; soluble peptide 5 and 10 μM; amine coupling. Background: In SPR one partner is held on a chip, and binding of the other changes the refractive index at the surface.
Procedure: Analysis of mAb 806 binding to peptides by BIAcore. […] Binding affinity was then determined by Scatchard analysis (insert).
A BIAcore 3000 was used for all experiments. The peptides containing the putative mAb 806 epitope were immobilised on a CM5 sensor chip using amine or thiol-disulphide exchange coupling at a flow rate of 5 μl/min (34). The 806 antibody was passed over the sensor surface at a flow rate of 5 μl/min at 25° C. The surfaces were generated between runs by injecting 10 mM HCl at a flow rate of 10 μl/min.
Assay [3] deals with mAb 806 binding to immobilized 1-501 EGFR fragment. The assay can be described thus: ELISA, peptide inhibition of mAb […] binding to 1-501 EGFR. Set-up: species or system human. The note with it: peptide in solution, increasing concentrations.
[4] abbreviates: EGFR Mutant (SDM) in loop 287-302, 273-621 on yeast.
Where [5] appears, read: EGFR Mutant (Library), 273-621 on yeast.

From patent US8652473B2, “Antibodies to EGF receptor epitope peptides and uses thereof” (Ludwig Institute for Cancer Research Ltd., priority 2004, dated 2014) come the findings set out here.

On to “M294A: yeast displayed EGFR 273-621 site-directed mutant”, for which the “mAb […] Binding” value in the assay on mAb 806 (setting [4]) is reported as “++”.

On to “C302A: yeast displayed EGFR 273-621 site-directed mutant”, for which, in the assay on mAb 806 (setting [4]), the “mAb […] Binding” value is “−”.

Regarding “E295A: yeast displayed EGFR 273-621 site-directed mutant”, in the assay with mAb 806 (setting [4]), the “mAb […] Binding” value is listed as “++”.

Take “C302R: yeast displayed EGFR 273-621 point mutant from library”: the “mAb […] Binding” value in the assay with mAb 806 (setting [5]) is “+”.

In the case of “R300P: yeast displayed EGFR 273-621 point mutant from library”, the “mAb […] Binding” value in the assay on mAb 806 (setting [5]) is “−”.

As for “E296A: yeast displayed EGFR 273-621 site-directed mutant”, in the assay with mAb 806 (setting [4]), the “mAb […] Binding” value was “++”.

“A289K: yeast displayed EGFR 273-621 site-directed mutant”: the “mAb […] Binding” value with mAb 806 (setting [4]) is “++”.

Regarding “D297Y: yeast displayed EGFR 273-621 point mutant from library”, in the assay with mAb 806 (setting [5]), the “mAb […] Binding” value was “+”.

With “wild-type 273-621: yeast surface displayed wild-type EGFR fragment 273-621”, the “mAb […] binding score” value with mAb 806 (wild-type EGFR 273-621 on yeast) is recorded as “++”.

Consider “R300A: yeast displayed EGFR 273-621 site-directed mutant”, for which the “mAb […] Binding” value with mAb 806 (setting [4]) is reported as “++”.

For “G298A: yeast displayed EGFR 273-621 site-directed mutant”, the “mAb […] Binding” value with mAb 806 (setting [4]) was “+”.

On to “R300C: yeast displayed EGFR 273-621 point mutant from library”, for which the “mAb […] Binding” value in the assay with mAb 806 (setting [5]) was “+”.

As to “V299A: yeast displayed EGFR 273-621 site-directed mutant”, in the assay with mAb 806 (setting [4]), the “mAb […] Binding” value was “++”.

With “EEGVRKC (epitope peptide) [C-terminal (EEGVRKC), C-terminal fragment from cyanogen bromide cleavage of the 287-302 peptide]”, the “inhibition of mAb […] binding to 501-Fc (ELISA)” value in assay [1] is on record as “incapable of inhibiting”.

For “G298S: yeast displayed EGFR 273-621 point mutant from library”, the “mAb […] Binding” value with mAb 806 (setting [5]) is recorded as “−”.

“C287W: yeast displayed EGFR 273-621 point mutant from library”: the “mAb […] Binding” value in the assay with mAb 806 (setting [5]) is reported as “+”.

As for “K301A: yeast displayed EGFR 273-621 site-directed mutant”, the “mAb […] Binding” value in the assay with mAb 806 (setting [4]) is recorded as “++”.

For the substance “Y292A: yeast displayed EGFR 273-621 site-directed mutant”, the “mAb […] Binding” value in the assay on mAb 806 (setting [4]) is “++”.

In the case of “C287Y: yeast displayed EGFR 273-621 point mutant from library”, the “mAb […] Binding” value in the assay on mAb 806 (setting [5]) was “+”.

On to “C287A: yeast displayed EGFR 273-621 site-directed mutant”, for which, in the assay on mAb 806 (setting [4]), the “mAb […] Binding” value is “+”.

Take “C302S: yeast displayed EGFR 273-621 point mutant from library”: the “mAb […] Binding” value in the assay with mAb 806 (setting [5]) was “−”.

Regarding “C287G: yeast displayed EGFR 273-621 point mutant from library”, the “mAb […] Binding” value with mAb 806 (setting [5]) is “+”.

Consider “V299K: yeast displayed EGFR 273-621 site-directed mutant”, for which the “mAb […] Binding” value with mAb 806 (setting [4]) is on record as “++”.

As to “K301E: yeast displayed EGFR 273-621 point mutant from library”, the “mAb […] Binding” value with mAb 806 (setting [5]) was “+”.

Turning to “D290A: yeast displayed EGFR 273-621 site-directed mutant”, the “mAb […] Binding” value in the assay on mAb 806 (setting [4]) is “++”.

Consider “E293K: yeast displayed EGFR 273-621 point mutant from library”, for which the “mAb […] Binding” value with mAb 806 (setting [5]) was “−”.

Take “CGADSYEMEEDG (epitope peptide) [287-298 EGFR peptide]”: in assay [2], the “inhibition of mAb […] binding to immobilized 287-302 EGFR peptide (BIAcore)” value is “unable to prevent binding”. In addition, the “inhibition of mAb […] binding to immobilized 1-501 fragment (ELISA)” value in assay [3] is “did not inhibit”.

In the case of “G288A: yeast displayed EGFR 273-621 site-directed mutant”, the “mAb […] Binding” value in the assay with mAb 806 (setting [4]) is “++”.

Take “G298D: yeast displayed EGFR 273-621 point mutant from library”: the “mAb […] Binding” value in the assay with mAb 806 (setting [5]) was “−”.

As to “C302G: yeast displayed EGFR 273-621 point mutant from library”, the “mAb […] Binding” value in the assay on mAb 806 (setting [5]) is on record as “−”.

Turning to “S291A: yeast displayed EGFR 273-621 site-directed mutant”, the “mAb […] Binding” value with mAb 806 (setting [4]) is “++”.

Consider “E293G: yeast displayed EGFR 273-621 point mutant from library”, for which the “mAb […] Binding” value with mAb 806 (setting [5]) is listed as “+”.

In the case of “CGADSYEM (epitope peptide) [N-terminal fragment from cyanogen bromide cleavage of the 287-302 peptide]”, the “inhibition of mAb […] binding to 501-Fc (ELISA)” value in assay [1] is reported as “incapable of inhibiting”.

As to “C302Y: yeast displayed EGFR 273-621 point mutant from library”, the “mAb […] Binding” value with mAb 806 (setting [5]) was “+”.

Consider “C287R: yeast displayed EGFR 273-621 point mutant from library”, for which the “mAb […] Binding” value in the assay on mAb 806 (setting [5]) is listed as “+”.

For “D297A: yeast displayed EGFR 273-621 site-directed mutant”, in the assay with mAb 806 (setting [4]), the “mAb […] Binding” value is “++”.

On to “V299D: yeast displayed EGFR 273-621 site-directed mutant”, for which the “mAb […] Binding” value in the assay with mAb 806 (setting [4]) is given as “−”.

As to “E293D: yeast displayed EGFR 273-621 point mutant from library”, in the assay with mAb 806 (setting [5]), the “mAb […] Binding” value was “+”.

For the substance “C287S: yeast displayed EGFR 273-621 point mutant from library”, the “mAb […] Binding” value with mAb 806 (setting [5]) is given as “+”.

“C302F: yeast displayed EGFR 273-621 point mutant from library”: in the assay on mAb 806 (setting [5]), the “mAb […] Binding” value is recorded as “+”.

As for “CGADSYEMEEDGVRK (epitope peptide) [287-301 EGFR peptide]”, the “inhibition of mAb […] binding to immobilized 287-302 EGFR peptide (BIAcore)” value in assay [2] is given as “weakly inhibit”.

On to “E293A: yeast displayed EGFR 273-621 site-directed mutant”, for which the “mAb […] Binding” value in the assay on mAb 806 (setting [4]) is recorded as “+”.
